# Data: patent publication US20260217708A1, “FUSED BENZAZEPINE DERIVATIVES FOR USE IN THE TREATMENT OF CANCER AND EPILEPSY” (UCB BIOPHARMA SRL, priority 2023, published 2026)
# Tests used:
# system Xc^− [1] = molecular target: T1, system Xc^− (Homo sapiens, UniProt Q9UPY5); assay: Cystine-induced glutamate release assay; format: cell-based; set-up: endogenous in cells; host or cells: H4 cells; details: H4 cells, sodium-free HEPES buffer, 50 μM L-Cystine, 2 hours, Amplex Red glutamate readout; read-out: pIC50 Cystine-induced glutamate release assay (converted)
# T1 sequence (Q9UPY5 1-501): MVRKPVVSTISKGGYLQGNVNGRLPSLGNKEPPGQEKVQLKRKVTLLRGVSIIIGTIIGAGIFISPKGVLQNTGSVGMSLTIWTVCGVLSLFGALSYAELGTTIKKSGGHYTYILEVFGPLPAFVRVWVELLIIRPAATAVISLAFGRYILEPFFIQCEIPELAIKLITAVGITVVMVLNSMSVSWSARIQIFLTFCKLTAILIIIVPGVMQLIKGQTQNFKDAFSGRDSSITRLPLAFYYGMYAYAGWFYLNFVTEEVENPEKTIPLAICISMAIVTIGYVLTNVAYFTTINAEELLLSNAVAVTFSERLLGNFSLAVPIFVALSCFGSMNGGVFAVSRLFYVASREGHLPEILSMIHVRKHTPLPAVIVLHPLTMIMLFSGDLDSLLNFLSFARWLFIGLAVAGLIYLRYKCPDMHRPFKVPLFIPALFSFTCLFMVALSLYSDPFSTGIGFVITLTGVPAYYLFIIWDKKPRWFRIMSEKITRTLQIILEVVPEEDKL
# T1 sequence (P08195 1-529 partner): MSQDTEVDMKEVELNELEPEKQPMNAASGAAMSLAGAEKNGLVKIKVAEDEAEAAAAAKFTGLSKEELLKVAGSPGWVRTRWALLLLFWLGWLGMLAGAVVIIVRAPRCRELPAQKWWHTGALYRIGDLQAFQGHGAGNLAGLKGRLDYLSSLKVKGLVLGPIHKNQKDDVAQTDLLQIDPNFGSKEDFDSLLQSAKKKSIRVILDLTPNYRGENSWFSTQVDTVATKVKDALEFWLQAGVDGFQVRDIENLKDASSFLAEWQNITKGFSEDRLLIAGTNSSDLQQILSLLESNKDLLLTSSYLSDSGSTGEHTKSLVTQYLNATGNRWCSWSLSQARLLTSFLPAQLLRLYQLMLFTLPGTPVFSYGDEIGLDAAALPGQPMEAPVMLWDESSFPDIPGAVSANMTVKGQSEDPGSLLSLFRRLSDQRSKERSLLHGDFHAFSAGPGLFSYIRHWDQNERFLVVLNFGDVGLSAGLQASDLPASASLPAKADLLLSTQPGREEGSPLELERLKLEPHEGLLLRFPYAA
# Procedure, shortened: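 IC50 (reported as pIC50) normalized to DMSO 1% and Erastin 50 μM controls, from Amplex Red fluorescence of glutamate exported into supernatant. H4 cells were washed into sodium-free buffer to exclude EAAT transport, then given compound with 50 μM L-cystine for 2 h in the incubator.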
# system Xc^− [2] = molecular target: T1, system Xc^−; assay: [^14C]L-Cystine uptake assay; format: cell-based; set-up: endogenous in cells; host or cells: H4 cells; details: H4 cells, sodium-free HEPES buffer, 0.5 μM L-[14C]Cystine and 4.5 μM L-Cystine, 1 hour at 37° C.; read-out: pIC50 [^14C] L-Cystine uptake assay (converted)
# Procedure, shortened: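 Compound effect is given as pIC50, taken between controls of 1% DMSO and 50 μM Erastin. Human H4 cells were pretreated 15 min with compound in sodium-free buffer, then took up 0.5 μM [14C]cystine with 4.5 μM cold cystine for 1 hour at 37° C, read by scintillation proximity counting.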
Compound,IC50 (system Xc^− [1]) [nM],IC50 (system Xc^− [2]) [nM]
"CC1C(=O)N(CC(=O)Nc2ccc(C(F)F)cc2)c2cc(N3[C@@H]4CCC[C@H]3C4)nc(F)c2-c2cccnc21 (single isomer, unassigned) [#287, 2-[5-(6-azabicyclo[3.1.1]heptan-6-yl)-3-fluoro-10-methyl-9-oxo-4,8,12-triazatricyclo[9.4.0.0^2,7]pentadeca-1(15),2,4,6,11,13-hexaen-8-yl]-N-[4-(difluoromethyl)phenyl]acetamide]",15.8 to 39.8,< 15.8
"Cc1cc2c(cn1)-c1ccnn1C(C)C(=O)N2CC(=O)Nc1ccc(Cl)c(F)c1 (single isomer, unassigned) [#186, enantiomer (7S) or (7R) of N-(4-chloro-3-fluoro-phenyl)-2-[7,12-dimethyl-8-oxo-5,6,9,13-tetrazatricyclo[8.4.0.0^2,6]tetradeca-1(10),2,4,11,13-pentaen-9-yl]acetamide]",15.8 to 39.8,39.8 to 100
"Cc1c2c(cn(C)c1=O)N(CC(=O)Nc1ccc(C(F)F)cc1)C(=O)C(C)c1ccccc1-2 (single isomer, unassigned) [#368, N-[4-(difluoromethyl)phenyl]-2-[1,3,7-trimethyl-2,6-dioxo-7H-pyrido[4,3-a][3]benzazepin-5-yl]acetamide]",< 15.8,< 15.8
"Cc1cc2c(cn1)-c1ccc(Cl)cc1CC(=O)N2CC(=O)Nc1ccc(C(F)(F)F)cc1 [#44, 2-(9-chloro-3-methyl-6-oxo-7H-pyrido[4,3-d][3]benzazepin-5-yl)-N-[4-(trifluoromethyl)phenyl]acetamide]",39.8 to 100,39.8 to 100
"O=C(CN1C(=O)Cc2cc(F)ccc2-c2c1ccnc2Cl)Nc1ccc(C(F)(F)F)cc1 [#51, 2-(1-chloro-9-fluoro-6-oxo-7H-pyrido[4,3-d][3]benzazepin-5-yl)-N-[4-(trifluoromethyl)-phenyl]acetamide]",39.8 to 100,< 15.8
"Cc1cc2c(c(C#N)n1)-c1ncccc1CC(=O)N2CC(=O)Nc1ccc(C(F)(F)F)cc1 [#392, 2-(15-cyano-13-methyl-9-oxo-3,10,14-triazatricyclo[9.4.0.0^2,7]pentadeca-1(11),2,4,6,12,14-hexaen-10-yl)-N-[4-(trifluoromethyl)phenyl]acetamide]",39.8 to 100,15.8 to 39.8
"N#Cc1c(F)ccc2c1-c1cccnc1CC(=O)N2CC(=O)Nc1ccc(C(F)(F)F)cc1 [#68, 2-(11-cyano-10-fluoro-6-oxo-5H-pyrido[2,3-d][1]benzazepin-7-yl)-N-[4-(trifluoromethyl)-phenyl]acetamide]",39.8 to 100,39.8 to 100
"CC1C(=O)N(CC(=O)Nc2ccc(Cl)c(F)c2)c2cc(Cl)cc(F)c2-c2ccnnc21 (single isomer, unassigned) [#384, 2-[9-chloro-11-fluoro-5-methyl-6-oxo-5H-pyridazino[3,4-d][1]benzazepin-7-yl]-N-(4-chloro-3-fluoro-phenyl)acetamide]",< 15.8,< 15.8
"CC1C(=O)N(CC(=O)Nc2ccc(C(F)F)cc2)c2cc(C(F)F)c(=O)n(C)c2-c2ccccc21 (single isomer, unassigned) [#357, 2-[3-(difluoromethyl)-1,7-dimethyl-2,6-dioxo-7H-pyrido[3,2-d][3]benzazepin-5-yl]-N-[4-(difluoromethyl)phenyl]acetamide]",15.8 to 39.8,15.8 to 39.8
"Cc1cc2c(cn1)-c1ncccc1C(C)C(=O)N2CC(=O)Nc1ccc(Cl)c(F)c1 (single isomer, unassigned) [#407, N-(4-chloro-3-fluoro-phenyl)-2-[8,13-dimethyl-9-oxo-3,10,14-triazatricyclo[9.4.0.0^2,7]pentadeca-1(15),2,4,6,11,13-hexaen-10-yl]acetamide]",39.8 to 100,39.8 to 100
"CC1C(=O)N(CC(=O)Nc2ccc(Cl)c(F)c2)c2cc(C3CC3)c(=O)n(C)c2-c2ccccc21 (centres unmarked) [#321, N-(4-chloro-3-fluoro-phenyl)-2-(3-cyclopropyl-1,7-dimethyl-2,6-dioxo-7H-pyrido[3,2-d][3]benzazepin-5-yl)acetamide]",15.8 to 39.8,15.8 to 39.8

# Continued, values first:
IC50 (system Xc^− [1]) [nM],IC50 (system Xc^− [2]) [nM],Compound
15.8 to 39.8,15.8 to 39.8,"CC1C(=O)N(CC(=O)Nc2ccc(Cl)c(F)c2)c2cccc(F)c2-c2cccnc21 (single isomer, unassigned) [#409, N-(4-chloro-3-fluoro-phenyl)-2-[11-fluoro-5-methyl-6-oxo-5H-pyrido[2,3-d][1]benzazepin-7-yl]acetamide]"
15.8 to 39.8,39.8 to 100,"CC1C(=O)N(CC(=O)Nc2ccc(C(F)F)cc2)c2cc(Cl)nc(Cl)c2-c2cccnc21 (centres unmarked) [#395, 2-(3,5-dichloro-10-methyl-9-oxo-4,8,12-triazatricyclo[9.4.0.0^2,7]pentadeca-1(11),2(7),3,5,12,14-hexaen-8-yl)-N-[4-(difluoromethyl)phenyl]acetamide]"
39.8 to 100,39.8 to 100,"Cc1cc2c(c(F)n1)-c1cccnc1C(C)C(=O)N2CC(=O)Nc1ccc(C#N)c(F)c1 (centres unmarked) [#133, N-(4-cyano-3-fluoro-phenyl)-2-(3-fluoro-5,10-dimethyl-9-oxo-4,8,12-triazatricyclo[9.4.0.0^2,7]pentadeca-1(11),2(7),3,5,12,14-hexaen-8-yl)acetamide]"
39.8 to 100,100 to 501,"Cc1cc2c(c(F)n1)-c1cccnc1[C@@H](C)C(=O)N2CC(=O)Nc1ccc2c(c1)nnn2C [#147, 2-[(10R)-3-fluoro-5,10-dimethyl-9-oxo-4,8,12-triazatricyclo[9.4.0.0^2,7]pentadeca-1(11),2(7),3,5,12,14-hexaen-8-yl]-N-(1-methylbenzotriazol-5-yl)acetamide]"
15.8 to 39.8,39.8 to 100,"Cc1cc2c(c(Cl)n1)-c1cccnc1C(C)C(=O)N2CC(=O)Nc1ccc(C(F)(F)F)cn1 (single isomer, unassigned) [#229, Enantiomer (10S) or (10R) of 2-[3-chloro-5,10-dimethyl-9-oxo-4,8,12-triazatricyclo[9.4.0.0^2,7]pentadeca-1(15),2,4,6,11,13-hexaen-8-yl]-N-[5-(trifluoromethyl)-2-pyridyl]acetamide]"
39.8 to 100,39.8 to 100,"Cc1cc2c(c(F)n1)-c1nccnc1C(C)C(=O)N2CC(=O)Nc1ccc(Cl)c(F)c1 (single isomer, unassigned) [#408, N-(4-chloro-3-fluoro-phenyl)-2-[15-fluoro-8,13-dimethyl-9-oxo-3,6,10,14-tetrazatricyclo[9.4.0.0^2,7]pentadeca-1(15),2,4,6,11,13-hexaen-10-yl]acetamide]"
15.8 to 39.8,39.8 to 100,"CC1C(=O)N(CC(=O)Nc2ccc(Cl)c(F)c2)c2cc(N3CC4(CC4)C3)nc(F)c2-c2cccnc21 (single isomer, unassigned) [#267, 2-[5-(5-azaspiro[2.3]hexan-5-yl)-3-fluoro-10-methyl-9-oxo-4,8,12-triazatricyclo[9.4.0.0^2,7]pentadeca-1(15),2,4,6,11,13-hexaen-8-yl]-N-(4-chloro-3-fluoro-phenyl)acetamide]"
39.8 to 100,15.8 to 39.8,"Cc1cc2c(c(F)n1)-c1cccnc1[C@@H](C)C(=O)N2CC(=O)Nc1ccc2c(cnn2C(F)F)c1 [#148, N-[1-(difluoromethyl)indazol-5-yl]-2-[(10R)-3-fluoro-5,10-dimethyl-9-oxo-4,8,12-triazatricyclo[9.4.0.0^2,7]pentadeca-1(11),2(7),3,5,12,14-hexaen-8-yl]acetamide]"
